Read-outs that look alike come from different tables or passages of the source.
Tests used:
[1] = Rate of air oxidation of 6,6-Me2PH4; assay type: physicochemical; conditions: 0.1 M Tris·HCl, pH 7.4 at 27°
Protocol: Stability. The rate of air oxidation of 6,6-Me₂PH₄ was measured in 0.1 M Tris·HCl, pH 7.4 at 27°, i.e., enzyme assay conditions. […] This is similar to the constant previously determined for 6,7-Me₂PH₄.

[2] = Preliminary in vivo testing: brain concentration after intraperitoneal injection; conditions: mice, intraperitoneally, 0.1 µmole/g body weight
Protocol: Preliminary in vivo testing of 6,6-disubstituted pteridines has been conducted. 6,6-Dimethyltetrahydropterin was injected intraperitoneally into mice at a dose rate of 0.1 µmole/g body weight. Maximum brain concentration was reached about one hour after injection and was more than 30 times higher than the maximum level reached by tetrahydrobiopterin injected in a similar manner.

[3] = molecular target: T1, Rat Liver Phenylalanine Hydroxylase (Rattus norvegicus, UniProt P04176); test: Phenylalanine hydroxylase cofactor assay (cofactor consumption and tyrosine formation); assay type: biochemical; conditions: for 6,6-Me2PH4 oxidized: 2-3 minutes, no regenerating system; for 6,6-Me2PH4 tyrosine: ratio cofactor oxidized to tyrosine produced; for Relative Vmax: relative to l-BH4 = 1.0
T1 construct: Cofactor for Rat Liver Phenylalanine Hydroxylase; from tissue; host or cells: rat liver
T1 sequence (P04176 1-453): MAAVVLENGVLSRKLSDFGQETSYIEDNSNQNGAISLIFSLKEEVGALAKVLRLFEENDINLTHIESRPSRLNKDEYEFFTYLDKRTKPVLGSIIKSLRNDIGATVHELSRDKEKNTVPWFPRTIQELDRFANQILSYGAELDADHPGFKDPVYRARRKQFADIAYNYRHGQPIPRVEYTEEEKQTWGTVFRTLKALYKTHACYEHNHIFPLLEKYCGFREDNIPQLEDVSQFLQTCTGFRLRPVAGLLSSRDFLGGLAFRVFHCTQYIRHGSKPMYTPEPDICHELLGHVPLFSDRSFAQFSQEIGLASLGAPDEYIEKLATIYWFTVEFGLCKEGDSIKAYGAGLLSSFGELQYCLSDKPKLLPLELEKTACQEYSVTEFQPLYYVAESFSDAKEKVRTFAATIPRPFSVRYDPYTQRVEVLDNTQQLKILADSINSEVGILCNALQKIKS
Protocol: The 6,6-dimethyl substituted tetrahydropterin was tested for cofactor activity in a standard phenylalanine hydroxylase assay in which both cofactor consumption and tyrosine formation were monitored. […] An apparent Michaelis constant was determined at 1 mM phenylalanine and atmospheric oxygen with concentrations of 6,6-Me₂PH₄ ranging from 0.02-0.3 mM. The effect of a second methyl at the 6-position slightly increases the affinity for phenylalanine hydroxylase, since the apparent Km was two-thirds to three-quarters that of 6-methyl and 6,7-dimethyltetrahydropterin (Table IV). […] The maximum velocity of the reaction with 6,6-Me₂PH₄ is similar to that with the 6,7-dimethyl compound and about 6 times slower than with the natural cofactor (Table IV).

[4] = cited from earlier work
[5] = molecular target: T2, Sheep Liver Dihydropteridine Reductase (Ovis aries, UniProt A0ACI6QPJ5); test: Quinoid dihydropterin as substrate for dihydropteridine reductase (sheep liver); assay type: biochemical; conditions: substrate produced by Peroxidase + H2O2
T2 sequence (A0ACI6QPJ5 46-254): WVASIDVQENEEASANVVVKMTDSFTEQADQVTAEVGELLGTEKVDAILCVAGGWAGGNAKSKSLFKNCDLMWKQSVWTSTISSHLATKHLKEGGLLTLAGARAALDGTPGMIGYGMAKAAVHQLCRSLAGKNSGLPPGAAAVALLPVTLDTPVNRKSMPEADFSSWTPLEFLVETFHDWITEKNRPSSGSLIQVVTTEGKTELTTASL
Protocol: The quinoid was generated from 6,6-Me₂PH₄, as outlined previously. […] Peroxidase (6 units/ml final volume) was temperature equilibrated in 0.1 M Tris·HCl, pH 7.4, at 27° for 5 minutes. H₂O₂ (1.2 mM final concentration) was then added, followed by 6,6-Me₂PH₄. Conversion to q-6,6-Me₂PH₂, monitored at 340 nm, was complete within a few seconds. • (iii) Generation by phenylalanine hydroxylase: […] At 5 minutes, 6,6-Me₂PH₄ was introduced and monitored at 340 nm. Conversion of 6,6-Me₂PH₄ to quinoid dihydropterin was complete in 1-7 minutes, depending on the concentration. […] Reaction was then initiated with dihydropteridine reductase (0.01 units/ml). Rates were calculated from the enzyme dependent decrease in O.D. at 340 nm, using an extinction coefficient of 9.8 for the chemically synthesized substrate and 6.2 for the peroxidase- and phenylalanine-hydroxylase-containing reactions in which the pterin is maintained in the quinoid form. […] This Km was obtained regardless of the method of generation of the quinoid dihydropterin. The Vmax's were also the same for the dihydropteridine reductase catalyzed reduction of quinoid generated by any of the three methods (Table VI). Thus, the quinoid products of each procedure appear to behave equally.

[6] = molecular target: T3, Beef Liver Dihydropteridine Reductase (Bos taurus, UniProt Q3T0Z7); test: Quinoid dihydropterin as substrate for dihydropteridine reductase (beef liver); assay type: biochemical; conditions: substrate produced by Peroxidase + H2O2
T3 construct: from tissue; host or cells: beef liver
T3 sequence (Q3T0Z7 1-242): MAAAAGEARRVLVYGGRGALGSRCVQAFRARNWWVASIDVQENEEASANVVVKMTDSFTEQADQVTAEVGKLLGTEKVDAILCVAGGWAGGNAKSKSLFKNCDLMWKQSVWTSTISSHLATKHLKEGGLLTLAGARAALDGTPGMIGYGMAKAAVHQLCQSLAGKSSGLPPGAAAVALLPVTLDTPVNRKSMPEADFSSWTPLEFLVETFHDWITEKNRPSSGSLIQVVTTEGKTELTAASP
Protocol: The quinoid was generated from 6,6-Me₂PH₄, as outlined previously. […] Peroxidase (6 units/ml final volume) was temperature equilibrated in 0.1 M Tris·HCl, pH 7.4, at 27° for 5 minutes. H₂O₂ (1.2 mM final concentration) was then added, followed by 6,6-Me₂PH₄. […] At 5 minutes, 6,6-Me₂PH₄ was introduced and monitored at 340 nm. […] Reaction was then initiated with dihydropteridine reductase (0.01 units/ml). Rates were calculated from the enzyme dependent decrease in O.D. at 340 nm, using an extinction coefficient of 9.8 for the chemically synthesized substrate and 6.2 for the peroxidase- and phenylalanine-hydroxylase-containing reactions in which the pterin is maintained in the quinoid form.

[7] = molecular target: T4, phenylalanine hydroxylase (Rattus norvegicus, UniProt P04176); test: Inhibition of phenylalanine hydroxylase by dihydropterins; assay type: biochemical; conditions: competitive inhibition; 6-MePH4 as cofactor 0.05 mM to 0.3 mM; read-out: apparent Ki
T4 construct: from tissue
T4 sequence (P04176 1-453): T1 sequence (P04176 1-453)
Protocol: Measurements were made under standard assay conditions with cofactor concentration varied between 0.05 and 0.3 mM. Stock solutions of 6,6-Me₂PH₂ were in 0.1 M assay buffer.
Standard assay conditions, with 6-MePH₄ as cofactor over a range of 0.05 mM to 0.3 mM, were employed.

[8] = cited from earlier work; remark: listed apart in the source
[9] = molecular target: T1, Rat Liver Phenylalanine Hydroxylase; conditions: data from the literature (footnotes c, d), cited from earlier work
[10] = rats, 125 mg BH4/kg intravenously, cited from earlier work
[11] = cited from earlier work; remark: listed apart in the source
[12] = cited from earlier work; for concentration: read-out: blood level
[13] = 0.2 mM cofactor, l-BH4: sigmoidal curve, Hill coefficient = 2, read-out: Km' for Phenylalanine
[14] = 1 mM phenylalanine, atmospheric oxygen, 0.1 M Tris·HCl, pH 7.4, 27°C, read-out: Km' for Cofactor

## CC1(C)CNc2nc(N)[nH]c(=O)c2N1 [6,6-Me2PH4, 6,6-Dimethyltetrahydropterin]
[1]
  half-life: 23 min
  pseudo first order rate constant of air oxidation: 0.03 min⁻¹
[2]
  maximum brain concentration, times higher than the maximum level reached by tetrahydrobiopterin: more than 30
  time after injection at which maximum brain concentration was reached: about one
[3]
  coupling of the reaction (tyrosine formed per cofactor molecule consumed): completely coupled reaction
  maximum velocity, times slower than with the natural cofactor: about 6
  Relative Vmax: 0.17
[3]; Initial [6,6-Me2PH4] 0.01 mM
  Tyrosine produced: 4.27 nmol
  6,6-Me2PH4 oxidized: 4.4 nmol
  6,6-Me2PH4 tyrosine: 1.03
[3]; Initial [6,6-Me2PH4] 0.03 mM
  Tyrosine produced: 9.77 nmol
  6,6-Me2PH4 oxidized: 9.1 nmol
  6,6-Me2PH4 tyrosine: 0.93
[3]; Initial [6,6-Me2PH4] 0.06 mM
  Tyrosine produced: 12.57 nmol
  6,6-Me2PH4 oxidized: 11.76 nmol
  6,6-Me2PH4 tyrosine: 0.94
[3]; Initial [6,6-Me2PH4] 0.1 mM
  Tyrosine produced: 19.25 nmol
  6,6-Me2PH4 oxidized: 21.18 nmol
  6,6-Me2PH4 tyrosine: 1.10

## CC(O)C(O)C1=Nc2c(nc(N)[nH]c2=O)NC1 (stereo not shown) [Dihydrobiopterin]
[4]; orally 2.5 mg/kg
  time normal levels of phenylalanine were maintained: 24 h

## quinoid dihydrobiopterin [dihydro-biopterin (natural isomer), reference compound]
[5]
  Km: 0.004 mM
  Relative Vmax Sheep: 0.5
[6]
  Km: 0.004 mM
  Relative Vmax Beef: 0.5

## CC1(c2ccccc2)CNC2=NC(N)=NC(=O)C2=N1 (stereo not shown) [Compound 6-Ph-6-MePH2, 2-Amino-4-hydroxy-6-methyl-6-phenyl-quinoid-dihydro-pteridine]
[6]
  Relative Vmax Beef: 0.6

## C[C@H](O)[C@H](O)C1=Nc2c(nc(N)[nH]c2=O)NC1 [7,8-dihydrobiopterin, reference compound]
[7]
  Ki: 50 µM

## C[C@H](O)[C@H](O)[C@H]1CNc2nc(N)[nH]c(=O)c2N1 [l-BH4, tetrahydrobiopterin]
[8]; 2 mg BH4 (i.v.)/kg/day for 3 days, 1 day after the last injection, BH4-synthesis-deficient child
  increase in CSF BH4: no increase
[8]; 2.5 hours after oral treatment, in two equal doses, from 2 ng before
  CSF BH4: 44 ng/mL
[8]; 2.5 hours after oral treatment
  CSF BH4 as share of that expected assuming uniform body distribution and retention: 0.22%
[9]; [13]
  Km: 170 µM
[9]; [14]
  Km: 21 ± 3 µM
[10]; in 15 mins
  maximum increase of BH4 in the striatum: 30%
[10]
  striatal increase as share of the concentration administered assuming uniform body distribution: 0.2%
  time of return of striatal BH4 to normal: less than 2 hours

## C[C@H](O)C(=O)C1=Nc2c(nc(N)[nH]c2=O)NC1 [sepiapterin]
[8]; 2.75 mg (p.o.)/kg, one patient
  effect on neurological symptoms: shown to have an effect
[4]; orally 0.6 mg-1.25 mg/kg
  time normal levels of phenylalanine were maintained: 24 h

## CC1CNc2nc(N)[nH]c(=O)c2N1 (stereo not shown) [Compound 6-MePH4, 6-methyltetrahydropterin]
[11]; at 9.5 hours after intravenous injection of 20 mg/kg
  CSF level: 0.06 µg/mL
[11]; three hours after intravenous injection of 20 mg/kg, 180 min
  CSF level: 0.45 µg/mL
[11]; three hours after intravenous injection of 20 mg/kg
  CSF level as share of that expected on the basis of equal body distribution: 2.2%
[11]; two hours after 8 mg/kg, from 6 before, normal = 30
  CSF 5-hydroxyindoleacetic acid: 18 ng/mL
[11]; two hours after 8 mg/kg, from 9 before, normal 132
  CSF homovanillic acid: 22 ng/mL
[12]; 2 hrs after injection, Kapatos and Kaufman
  share of striatal 6-MePH4 remaining in the fully reduced tetrahydro-form: over 85%
[12]; Curtius et al.
  share of 6-MePH4 in the brain in the reduced form: 30%
[12]; rats, 0.11 µmole (i.p.)/gm body weight
  efficiency of entry into the brain, times that of an equal dose of BH4: up to 10
[12]; rats, 0.11 µmole (i.p.)/gm, at 30 minutes, maintained until 2 hours
  brain level: 2 nmoles/g brain
[12]; rats, 0.11 µmole (i.p.)/gm
  brain level as share of that expected assuming equal body distribution: 2%
[12]; rats, i.p., at 30 minutes
  concentration: 40 µM
[12]; rats, i.p., by 2 hrs
  concentration: 10 µM
[12]; rats, i.p.
  half life for retention by the brain: 180 min
  half life for retention by the plasma: 42 min
[3]
  Relative Vmax: 0.77

## CC1Nc2nc(N)[nH]c(=O)c2NC1C (stereo not shown) [6,7-Me2PH4, 6,7-dimethyltetrahydropterin]
[9]; [13]
  Km: 800 ± 100 µM
[9]; [14]
  Km: 90 ± 10 µM
[9]; relative to l-BH4 = 1.0
  Relative Vmax: 0.17

## CC1N=C2C(=O)N=C(N)N=C2NC1C (stereo not shown) [6,7-Me2PH2]
[5]
  Relative Vmax Sheep: 2
